These results are taken from PMC7816042, “Insights into the Structure-Activity Relationship of Glycosides as Positive Allosteric Modulators Acting on P2X7 Receptors” (Molecular Pharmacology, 2021).

This data set deals with T1, human P2X7 (Homo sapiens, UniProt Q99572).
T1 construct: expressed in transfected cells
T1 sequence (Q99572 1-595): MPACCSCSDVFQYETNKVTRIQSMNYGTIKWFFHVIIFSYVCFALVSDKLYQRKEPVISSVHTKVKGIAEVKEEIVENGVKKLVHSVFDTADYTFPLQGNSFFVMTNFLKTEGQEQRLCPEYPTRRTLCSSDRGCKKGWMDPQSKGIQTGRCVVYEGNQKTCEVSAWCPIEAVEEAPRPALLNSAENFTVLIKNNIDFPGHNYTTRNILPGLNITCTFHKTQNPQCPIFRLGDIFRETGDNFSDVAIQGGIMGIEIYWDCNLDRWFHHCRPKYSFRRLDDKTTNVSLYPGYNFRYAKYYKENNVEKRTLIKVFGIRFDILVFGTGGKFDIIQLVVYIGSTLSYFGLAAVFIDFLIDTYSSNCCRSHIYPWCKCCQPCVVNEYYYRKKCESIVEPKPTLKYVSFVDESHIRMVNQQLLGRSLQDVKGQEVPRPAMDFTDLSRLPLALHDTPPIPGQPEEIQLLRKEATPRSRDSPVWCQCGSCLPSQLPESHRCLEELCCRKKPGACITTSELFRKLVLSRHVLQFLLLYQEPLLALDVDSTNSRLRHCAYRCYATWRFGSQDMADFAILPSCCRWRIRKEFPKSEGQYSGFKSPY
The experiment in a line: YO-PRO-1 dye uptake assay in HEK-hP2X7 cells. In kind it is cell-based. The conditions noted are these: for EC50 ratio: average EC50 for ATP + vehicle of each set of experiments used; for EC50 ratio / Maximum response (fold increase) / ATP-induced YO-PRO-1 response in fixed-concentration screen / PAM effect on ATP dose-response curve: 10 µM glycoside; for Maximum response (fold increase): maximum response defined at 1 mM ATP; for ATP-induced YO-PRO-1 response in fixed-concentration screen: 200 µM ATP, compared with ATP + DMSO; for PAM effect on ATP dose-response curve: HEK-hP2X7, result in words. Here is the method:
ATP-induced dye uptake experiments were performed as described previously ([Bidula et al., 2019b]). Briefly, HEK-hP2X7 cells were plated at 2 × 10^4 cells per well (100 μl per well) in complete medium and left overnight to attach to poly-D-lysine–coated 96-well plates. YO-PRO-1 iodide was prepared in a low divalent buffered solution ([…], 2 mM KCl, 13 mM D-glucose, 10 mM HEPES, 0.2 mM CaCl2 pH 7.3) to a final concentration of 2 μM. Medium was removed from the plate using a manual multichannel pipette and YO-PRO-1 containing buffer applied to wells (180 μl per well). […] A Flexstation 3 plate reader (Molecular Devices, Sunnyvale, CA) was used to record YO-PRO-1 fluorescence in HEK-hP2X7 for 300 seconds after the addition of ATP (at 10× final concentration) with/without ginsenoside compounds or vehicle (DMSO). Plates were allowed to warm up to 37°C for 10 minutes before initiating the recording. Baseline recordings were made for 40 seconds before compound addition using the Flexstation 3 fluidics system. YO-PRO-1 fluorescence was measured at 520 nm after excitation at 490 nm (auto cutoff at 495 nm), and the sample interval was 3.5 seconds. Flexstation settings were photomultiplier tube (PMT) medium, six reads per well, pipette height 170, and a rate of injection of 3. Data were acquired using Softmax Pro version 5.4 (Molecular Devices). To analyze the data, area under the dye uptake curve was calculated in Softmax Pro version 5 using zero baseline data with a lag time of 50 seconds (50–300 seconds).
Results are expressed as means ± S.D. from the indicated number of experiments. For YO-PRO-1 dye uptake and intracellular calcium experiments, each independent experiment used triplicate wells, and the means of the replicates were collated and plotted. Technical replicates were used to ensure reliability of fluorescence values. […] Dose-response curves were plotted by a nonlinear regression fit with variable slope using GraphPad Prism software version 7. Half-maximal responses are expressed as EC50 values with 95% confidence intervals. These values were calculated from the collated data for each compound from three independent experiments. Statistical differences were determined by analysis of the data by one-way ANOVA followed by Dunnett’s multiple comparison test or Sidak’s multiple comparison test using GraphPad Prism version 7. P < 0.05 was the accepted minimum level of significance.

Several values for one entry are separate records, joined by “and”; a condition that tells them apart may be missing. Equal entries are not always repeated. Structures can show the parent of a compound that is named as a salt.

For the compound `CC(C)=CCC[C@@](C)(O)[C@H]1CC[C@]2(C)[C@@H]1[C@H](O)C[C@@H]1[C@@]3(C)CC[C@H](O[C@@H]4O[C@H](CO)[C@@H](O)[C@H](O)[C@H]4O)C(C)(C)[C@@H]3CC[C@]12C` [Ginsenoside-20(R)-Rh2, 20(R)-ginsenoside-Rh2], the EC50 ratio is reported as 0.8 and the “Maximum response (fold increase)” value is listed as 1.53 fold.

`C[C@H]1CC[C@@H]2[C@@H](C)[C@H]3[C@H](C[C@H]4[C@@H]5CC=C6C[C@@H](O[C@@H]7O[C@H](CO)[C@H](O)[C@H](O[C@@H]8O[C@H](CO)[C@@H](O)[C@H](O)[C@H]8O)[C@H]7O[C@@H]7O[C@@H](C)[C@H](O)[C@@H](O)[C@H]7O)CC[C@]6(C)[C@H]5CC[C@]34C)N2C1` [Solanine, solanine hydrochloride]: the “ATP-induced YO-PRO-1 response in fixed-concentration screen” value (“ATP-induced YO-PRO-1 response” below) is reported as “large increase”. In addition, for the setting “10 µM AZ10606120 pretreatment”, the “Effect of AZ10606120 pretreatment on response to ATP + glycoside (P2X7 dependence)” value is recorded as “unaffected by AZ10606120 pretreatment”. For the same compound, under “YO-PRO-1 uptake without ATP or without P2X7”, the “Toxic effect on cells” value is given as “toxic effect on the cells”.

Regarding `CC(C)=CCC[C@](C)(O[C@@H]1O[C@H](CO[C@@H]2OC[C@@H](O)[C@H](O)[C@H]2O)[C@@H](O)[C@H](O)[C@H]1O)[C@H]1CC[C@]2(C)[C@@H]1[C@H](O)C[C@@H]1[C@@]3(C)CC[C@H](O[C@@H]4O[C@H](CO)[C@@H](O)[C@H](O)[C@H]4O)C(C)(C)[C@@H]3CC[C@]12C` [Stevenleaf (gypenoside IX), stevenleaf], the EC50 ratio amounted to 0.7 and the “Maximum response (fold increase)” value was 1.64 fold.

For `C[C@@H]1O[C@@H](O[C@H]2C[C@@H](O)[C@]3(CO)[C@H]4[C@H](O)C[C@]5(C)[C@@H](C6=CC(=O)OC6)CC[C@]5(O)[C@@H]4CC[C@]3(O)C2)[C@H](O)[C@H](O)[C@H]1O` [Ouabain, ouabain, reference compound], the “PAM effect on ATP dose-response curve” value was “no effect on the ATP dose-response curves”, the EC50 ratio stood at 1.1 and the “Maximum response (fold increase)” value came to 1.08 fold.

As for `COC(=O)[C@@]1(C)CC[C@]2(C(=O)O)CC[C@]3(C)C(=CC[C@@H]4[C@@]5(C)C[C@H](O)[C@H](O[C@@H]6OC[C@@H](O[C@@H]7O[C@H](CO)[C@@H](O)[C@H](O)[C@H]7O)[C@H](O)[C@H]6O)[C@@](C)(CO)[C@@H]5CC[C@]43C)[C@@H]2C1` [Esculentoside A, esculentoside A], the “PAM effect on ATP dose-response curve” value was “inactive”, the “ATP-induced YO-PRO-1 response” value was “no modulation of P2X7”, the EC50 ratio turned out to be 0.8 and the “Maximum response (fold increase)” value came out at 0.94 fold.

Turning to `CC(C)=CCC[C@](C)(O[C@@H]1O[C@H](CO[C@@H]2O[C@H](CO)[C@@H](O)[C@H](O)[C@H]2O)[C@@H](O)[C@H](O)[C@H]1O)[C@H]1CC[C@]2(C)[C@@H]1[C@H](O)C[C@@H]1[C@@]3(C)CC[C@H](O[C@@H]4O[C@H](CO)[C@@H](O)[C@H](O)[C@H]4O[C@@H]4O[C@H](CO)[C@@H](O)[C@H](O)[C@H]4O)C(C)(C)[C@@H]3CC[C@]12C` [Ginsenoside-Rb1, ginsenoside-Rb1], the “PAM effect on ATP dose-response curve” value is listed as “only type I PAM activity”; the EC50 ratio is 1.2; the “Maximum response (fold increase)” value is 1.9 fold and 1.96 fold.

In the case of `CC(C)=CCC[C@](C)(O)[C@H]1CC[C@]2(C)[C@@H]1[C@H](O)C[C@@H]1[C@@]3(C)CC[C@H](O[C@@H]4O[C@H](CO)[C@@H](O)[C@H](O)[C@H]4O)C(C)(C)[C@@H]3CC[C@]12C` [Ginsenoside-20(S)-Rh2, 20(S)-ginsenoside-Rh2], the EC50 ratio worked out at 1.8 and the “Maximum response (fold increase)” value was found to be 2.6 fold.

Take `CC(C)=CCC[C@@](O)(CO[C@@H]1O[C@H](CO)[C@@H](O)[C@H](O)[C@H]1O)[C@H]1CC[C@]2(C)[C@@H]1CC[C@@H]1[C@@]3(C=O)CC[C@H](O[C@@H]4OC[C@H](O)[C@H](O[C@@H]5OC[C@@H](O)[C@H](O)[C@H]5O)[C@H]4O[C@@H]4O[C@@H](C)[C@H](O)[C@@H](O)[C@H]4O)C(C)(C)[C@@H]3CC[C@]12C` [Gypenoside XLIX, gypenoside XLIX]: the “PAM effect on ATP dose-response curve” value is “did not reduce the EC50 value for ATP”; the “ATP-induced YO-PRO-1 response” value was “small increase in the ATP-induced YO-PRO-1 response, which was not statistically significant”; the EC50 ratio was 0.9; the “Maximum response (fold increase)” value amounted to 1.9 fold.

With `CC1(C)[C@@H](O[C@H]2O[C@H](C(=O)O)[C@@H](O)[C@H](O)[C@H]2O[C@@H]2O[C@H](C(=O)O)[C@@H](O)[C@H](O)[C@H]2O)CC[C@]2(C)[C@H]3C(=O)C=C4[C@@H]5C[C@@](C)(C(=O)O)CC[C@]5(C)CC[C@@]4(C)[C@]3(C)CC[C@@H]12` [Glycyrrhizic acid, glycyrrhizic acid], the “ATP-induced YO-PRO-1 response” value was “no modulation of P2X7”.

`CC(C)=CCC[C@](C)(O)[C@H]1CC[C@]2(C)[C@@H]1[C@H](O)C[C@@H]1[C@@]3(C)CC[C@H](O[C@@H]4O[C@H](CO)[C@@H](O)[C@H](O)[C@H]4O[C@@H]4O[C@H](CO)[C@@H](O)[C@H](O)[C@H]4O)C(C)(C)[C@@H]3CC[C@]12C` (single isomer, unassigned) [ginsenoside-Rg3 (mixed isomers), ginsenoside-Rg3]: the “ATP-induced YO-PRO-1 response” value is “small increase in the ATP-induced YO-PRO-1 response, which was not statistically significant”.

For the compound `C=C1C[C@@]23CC[C@H]4[C@@](C)(CCC[C@@]4(C)C(=O)O[C@@H]4O[C@H](CO)[C@@H](O)[C@H](O)[C@H]4O)[C@@H]2CC[C@]1(O[C@@H]1O[C@H](CO)[C@@H](O)[C@H](O)[C@H]1O[C@@H]1O[C@H](CO)[C@@H](O)[C@H](O)[C@H]1O)C3` [Stevioside, stevioside], the “ATP-induced YO-PRO-1 response” value was “no modulation of P2X7” and the EC50 ratio was found to be 1.0.

For the compound `CC(=O)O[C@@H]1C[C@]2(O)[C@H](CC[C@]3(C)[C@@H](c4ccc(=O)oc4)CC[C@@]32O)[C@@]2(C)CC[C@H](O[C@@H]3O[C@H](CO)[C@@H](O)[C@H](O)[C@H]3O)C=C12` [Scilliroside], the “PAM effect on ATP dose-response curve” value is listed as “no effect on the ATP dose-response curves”, the EC50 ratio was found to be 1.3 and the “Maximum response (fold increase)” value was 1.07 fold.

Regarding `C[C@H](CC[C@@H](O[C@@H]1O[C@H](CO[C@@H]2O[C@H](CO)[C@@H](O)[C@H](O)[C@H]2O)[C@@H](O)[C@H](O)[C@H]1O[C@@H]1O[C@H](CO)[C@@H](O)[C@H](O)[C@H]1O)C(C)(C)O)[C@H]1CC[C@@]2(C)[C@@H]3CC=C4[C@@H](CC[C@H](O[C@@H]5O[C@H](CO[C@@H]6O[C@H](CO)[C@@H](O)[C@H](O)[C@H]6O)[C@@H](O)[C@H](O)[C@H]5O)C4(C)C)[C@]3(C)[C@H](O)C[C@]12C` [Mogroside V, mogroside V], the “ATP-induced YO-PRO-1 response” value was “no modulation of P2X7”.

With `CC[C@H](CC[C@@H](C)[C@H]1CC[C@H]2[C@@H]3CC=C4C[C@@H](O[C@@H]5O[C@H](CO)[C@@H](O)[C@H](O)[C@H]5O)CC[C@]4(C)[C@H]3CC[C@]12C)C(C)C` [Daucosterol, daucosterol], the “PAM effect on ATP dose-response curve” value is on record as “no effect on the ATP dose-response curves”, the EC50 ratio worked out at 0.7 and the “Maximum response (fold increase)” value came out at 1.33 fold.
